Ki data for 2 molecules are collected here from ChEMBL document CHEMBL1135635, “Kappa-opioid receptor model in a phospholipid bilayer: molecular dynamics simulation” (J Med Chem, 2002).

In this experiment the target is Kappa-type opioid receptor (Cavia porcellus, UniProt P41144). The experiment can be described thus: Inhibition of [3H]U-69593 binding towards Opioid receptor kappa 1 in guinea pig brain homogenates. Type of experiment: tissue-based.
Kappa-type opioid receptor, sequence (P41144 whole entry): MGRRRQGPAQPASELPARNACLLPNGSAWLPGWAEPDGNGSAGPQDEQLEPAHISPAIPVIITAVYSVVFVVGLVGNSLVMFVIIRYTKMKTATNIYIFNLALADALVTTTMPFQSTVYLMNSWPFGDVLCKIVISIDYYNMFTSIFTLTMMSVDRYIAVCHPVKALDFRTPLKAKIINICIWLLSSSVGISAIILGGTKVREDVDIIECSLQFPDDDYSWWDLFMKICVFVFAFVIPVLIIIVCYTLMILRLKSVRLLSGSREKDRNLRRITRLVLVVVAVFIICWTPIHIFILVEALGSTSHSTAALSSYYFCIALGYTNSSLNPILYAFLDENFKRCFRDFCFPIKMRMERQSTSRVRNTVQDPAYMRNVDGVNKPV

As usually defined, the Ki is a measure of affinity in units of concentration, obtained from inhibition or displacement. Take `C[C@H]1C2Cc3ccc(O)cc3[C@@]1(C)CCN2CC1C[C@@]1(C(=O)Nc1ccccc1)c1ccccc1` (some centres not stated): the affinity, expressed as Ki, was 2350 nM.

`CC(=O)OC[C@@]1(c2ccccc2)CC1CN1CC[C@]2(C)c3cc(O)ccc3CC1[C@@H]2C` (some centres not stated) yielded an inhibitory constant (Ki) of 228 nM.
